The values that follow come from patent US20250066794A1, “Application of PRDX5 and GPX4 Genes in Preparation of Drugs for Castration-resistant Prostate Cancer” (Jiangnan University, priority 2023, published 2025).

The test system of data set [1] is CRPC mice. Kind of data set: Drug-resistant CRPC formed by continuous ENZ in C-MYC-overexpressing prostate cancer mice: prostate weight, HE staining. Type of data set: in vivo, mouse. The settings on record: CRPC mice after drug resistance and recurrence; every three days for 30 days; ENZ 10 mg/Kg gavage, siRNA 100 nM tail vein injection. The procedure:
(§1) A C-MYC (Hi-Myc)-overexpressing and spontaneous prostate cancer mouse model was constructed. mPIN/Cancer transition was developed in mice at the age of 4 months, at which time the mice were randomly grouped into NC control group (gavaged with solvent) and ENZ administration group. The ENZ administration group was given 10 mg/Kg ENZ by gavage every three days for a total of 30 days, and then some of the mice were sacrificed by cervical dislocation and their prostates were taken for photographing and weighing. […] Afterwards, the rest of the mice continued to be administrated according to the above method for 60 days. A recurrence was found in the ENZ group, and the CRPC mice were successfully obtained. Afterwards, the mice (i.e., mice at the age of 7 months) were randomly grouped into NC control group (continuously gavaged with solvent), ENZ single drug group, nucleic acid drug siPRDX5-1 group, ENZ and siPRDX5-1 co-administration group, nucleic acid drug siPRDX5-16 group, ENZ and siPRDX5-16 co-administration group, nucleic acid drug siGPX4-1 group, ENZ and siGPX4-1 co-administration group, nucleic acid drug siGPX4-16 group, ENZ and siGPX4-16 co-administration group, nucleic acid drugs siPRDX5-16+siGPX4-16 group, and ENZ and siPRDX5-16+siGPX4-16 co-administration group. The corresponding administrations were performed. […]

Data set [2] concerns C-MYC (Hi-Myc)-overexpressing and spontaneous prostate cancer mouse model. Kind of data set: C-MYC (Hi-Myc)-overexpressing spontaneous prostate cancer mouse model, ENZ gavage before resistance. Type of data set: in vivo. The protocol: as §1
The subject of data set [3] is LNCaP-DTP cells. Kind of data set: CCK8 cell survival, LNCaP-DTP cells. Type of data set: cell-based, human. The protocol:
(§2) Further, drug-resistant LNCaP-DTP and MyC-CaP-DTP cells as well as 22Rv1 cells which are themselves ENZ-resistant were transfected with the modified #3-siPRDX5-1-16 or #3-siGPX4-1-16 or #3-siPRDX5-1-16+#3-siGPX4-1-16 synthesized in Example 3 through a CCK8 method, illustrating the in vitro antitumor effects of nucleic acid drugs in drug-resistant cells.
(§3) The drug-resistant LNCaP-DTP and MyC-CaP-DTP cells as well as 22Rv1 cells which are themselves ENZ-resistant were seeded in a 96-well plate containing fresh 1640 medium and attached. Subsequently, 1 to 16 siPRDX5, siGPX4, siPRDX5+siGPX4, and negative control si-neg were added, and the transfection mixture was sucked out after successful interference. The medium was replaced with a normal complete medium (1640 medium containing 10% fetal bovine serum and 1% double antibody) and continued to be cultured in the incubator for 24 h. Finally, a CCK8 assay was performed for determination and the cell survival was calculated by OD450 value.

Data set [4] has as its system MyC-CaP-DTP cells. Nature of the data set: CCK8 cell survival, MyC-CaP-DTP cells. Type of data set: cell-based, mouse. The procedure:
as §2, §3

Data set [5] has as its system PRDX5 enzyme activity. Nature of the data set: PRDX5 enzyme activity in prostate tissue of CRPC mice (thioredoxin system). It counts as in vivo, mouse. The settings on record: administration for 30 days, ENZ 10 mg/Kg gavage, siRNA 100 nM tail vein injection. The procedure:
A C-MYC (Hi-Myc)-overexpressing and spontaneous prostate cancer mouse model was constructed. mPIN/Cancer transition was developed in mice at the age of 4 months, at which time the mice were randomly grouped into NC control group (gavaged with solvent) and ENZ administration group. The ENZ administration group was given 10 mg/Kg ENZ by gavage every three days for a total of 30 days, and then some of the mice were sacrificed by cervical dislocation and their prostates were taken for photographing and weighing. […] Afterwards, the rest of the mice continued to be administrated according to the above method for 60 days. A recurrence was found in the ENZ group, and the CRPC mice were successfully obtained. […]
Assay for PRDX5 enzyme activity: the PRDX5 enzyme activity was determined using the thioredoxin system. Specifically, the rate of H2O2 degradation was measured by detecting the reduction of A340 caused by NADPH oxidation. […]

Data set [6] concerns PRDX5 gene. Nature of the data set: qRT-PCR relative expression of PRDX5 gene after siPRDX5 transfection, LNCaP and LNCaP-DTP cells. Type of data set: cell-based, human. The settings on record: for mRNA expression level of PRDX5: LNCaP and drug-resistant LNCaP-DTP cells together; for Relative expression level of PRDX5 gene: qRT-PCR. The procedure:
(§4) To screen for suitable siRNAs, the interference activity of the siRNAs designed in Example 1 was determined. • S1. LNCaP and MyC-CaP cells were seeded at 1×10^6 in a 10 cm cell culture dish. On the second day, the cells were attached and then treated with 50 μM enzalutamide (ENZ) for 9 days, during which the medium was replaced with a fresh drug-containing medium (1640 medium containing 50 µM ENZ) for culture every three days. The cells were collected. After the treatment for 9 days, the cells were drug-resistant (DTP cells) and were labeled as LNCaP-DTP cells and MyC-CaP-DTP cells, respectively. • S2. LNCaP, MyC-CaP, and LNCaP-DTP and MyC-CaP-DTP cells as collected in S1, were seeded in a 6 cm dish and a 10 cm dish that contain fresh complete medium (1640 medium containing 10% fetal bovine serum and 1% […]), attached, and then transfected with siPRDX5 and siGPX4 designed in Example 1, and then mRNA and protein were extracted. • S3. RNA level and protein level were determined by qRT-PCR and Western Blot assays, and siRNAs with interference activity were screened and obtained.
(§5) The results are shown in FIG. 2 and FIG. 3 as well as Tables 1 and 2. Using the same method as in Example 2, LNCaP and MyC-CaP cells as well as their derived LNCaP-DTP and MyC-CaP-DTP cells were treated with the above modified siRNAs. […] It is also found to be more efficient in interfering with human cells compared to mice.
For orientation: Quantitative PCR measures a nucleic acid by following its amplification.

The subject of data set [7] is PRDX5. Nature of the data set: Western Blot / qRT-PCR expression of PRDX5 after unmodified siPRDX5. Type of data set: cell-based. To be noted: unmodified siRNA; LNCaP and MyC-CaP cells (FIG. 1, FIG. 4). The protocol: as §4
A general note: A western blot detects proteins with antibodies after separation by electrophoresis.

Data set [8] concerns GPX4 gene. Nature of the data set: qRT-PCR relative expression of GPX4 gene after siGPX4 transfection, LNCaP and LNCaP-DTP cells. To be noted: for mRNA expression level of GPX4: LNCaP and drug-resistant LNCaP-DTP cells together; for Relative expression level of GPX4 gene: qRT-PCR; for interference activity on GPX4 gene expression (in words): drug-resistant or non-drug-resistant LNCaP cells and MyC-CaP cells. Type of data set: cell-based, human. The protocol: as §4, §5

Data set [9] deals with GPX4. Nature of the data set: Western Blot / qRT-PCR expression of GPX4 after unmodified siGPX4. It counts as cell-based. The settings on record: unmodified siRNA; LNCaP and MyC-CaP cells (FIG. 1, FIG. 4). The protocol:
as §4

As for `CNC(=O)c1ccc(N2C(=S)N(c3ccc(C#N)c(C(F)(F)F)c3)C(=O)C2(C)C)cc1F` [ENZ, Enzalutamide], in data set [1], the “Mean mouse prostate weight” value is recorded as 66.67 mg. In addition, in data set [2] (administration continued for 60 further days), the “recurrence on continued administration” value is reported as “recurrence”. For the same molecule, the “prostate weight compared to that of the NC control group” value in data set [2] (mice aged 4 months, 10 mg/Kg ENZ by gavage every three days for 30 days) is “reduced by half”. Also, the “growth inhibition (in words)” value in data set [3] and in [4] was “no longer has a significant inhibitory effect” in each case. Also, the “PRDX5 enzyme activity relative to NC group” value in [5] came out at 4.56.
For the molecule “#3-siPRDX5: unmodified double-stranded siRNA against PRDX5, SEQ ID NO. 1 and SEQ ID NO. 2 (chain 1 CAGACUUAUUACUAGAUGAUU; chain 2 AAUCAUCUAGUAAUAAGUCUGUC; unmodified RNA)”, the “mRNA expression level of PRDX5” value in data set [6] is recorded as “around 0.16”. Further, the “Relative expression level of PRDX5 gene” value in data set [6] (LNCaP cells) was 0.125; in data set [6] (LNCaP-DTP cells), 0.197. In [6] (drug-resistant or non-drug-resistant LNCaP cells and MyC-CaP cells), the “interference activity on PRDX5 gene expression (in words)” value is “superior”. For the same molecule, the “expression of PRDX5, including mRNA level and protein level” value in data set [7] is on record as “substantially reducing the expression of PRDX5”.
Take “#1-siGPX4: unmodified double-stranded siRNA against GPX4, SEQ ID NO. 11 and SEQ ID NO. 12 (chain 1 GUGAGGCAAGACCGAAGUAAACUAC; chain 2 GUAGUUUACUUCGGUCUUGCCUCACUG; unmodified RNA)”: the “mRNA expression level of GPX4” value in data set [8] is recorded as “around 0.73”. Moreover, the “Relative expression level of GPX4 gene” value in data set [8] (LNCaP cells) is on record as 0.700; in [8] (LNCaP-DTP cells), 0.735.
Turning to “#4-siGPX4: unmodified double-stranded siRNA against GPX4, SEQ ID NO. 5 and SEQ ID NO. 6 (chain 1 GUGAGGCAAGACCGAAGUAAA; chain 2 UUUACUUCGGUCUUGCCUCACUG; unmodified RNA)”, in data set [8], the “mRNA expression level of GPX4” value was “around 0.24” and the “interference activity on GPX4 gene expression (in words)” value was “superior”. The “Relative expression level of GPX4 gene” value in data set [8] (LNCaP cells) turned out to be 0.220. In addition, the “Relative expression level of GPX4 gene” value in data set [8] (LNCaP-DTP cells) came out at 0.265. Besides, the “expression of GPX4, including mRNA level and protein level” value in data set [9] is given as “substantially reducing the expression of GPX4”.
Consider “#2-siGPX4: unmodified double-stranded siRNA against GPX4, SEQ ID NO. 13 and SEQ ID NO. 14 (chain 1 CUACAACGUCAAAUUCGAUAUGUUC; chain 2 GAACAUAUCGAAUUUGACGUUGUAGCC; chain 1: all phosphodiester, sugars by position not given here; chain 2: RNA, phosphodiester; further chemistry not fully specified)”, for which the “mRNA expression level of GPX4” value in data set [8] is “around 0.73”. The “Relative expression level of GPX4 gene” value in data set [8] (LNCaP cells) was 0.730; in data set [8] (LNCaP-DTP cells), 0.755.
In the case of “#1-siPRDX5: unmodified double-stranded siRNA against PRDX5, SEQ ID NO. 7 and SEQ ID NO. 8 (chain 1 AGACAGACUUAUUACUAGAUGAUUC; chain 2 GAAUCAUCUAGUAAUAAGUCUGUCUCC; chain 1: all phosphodiester, sugars by position and methylation of C not given here; chain 2: unmodified RNA)”, in [6], the “mRNA expression level of PRDX5” value is “around 0.60”. The “Relative expression level of PRDX5 gene” value in data set [6] (LNCaP cells) turned out to be 0.605; in data set [6] (LNCaP-DTP cells) it was 0.621.
As to “#3-siGPX4: unmodified double-stranded siRNA against GPX4, SEQ ID NO. 3 and SEQ ID NO. 4 (chain 1 ACAACGUCAAAUUCGAUAUGU; chain 2 ACAUAUCGAAUUUGACGUUGUAC; unmodified RNA)”, in data set [8], the “mRNA expression level of GPX4” value is given as “around 0.21”. The “Relative expression level of GPX4 gene” value in [8] (LNCaP cells) is on record as 0.180; in [8] (LNCaP-DTP cells), 0.245. The “interference activity on GPX4 gene expression (in words)” value in data set [8] is on record as “superior interference activity than the #4-siGPX4”. Further, the “expression of GPX4, including mRNA level and protein level” value in [9] was “substantially reducing the expression of GPX4”.
On to “#2-siPRDX5: unmodified double-stranded siRNA against PRDX5, SEQ ID NO. 9 and SEQ ID NO. 10 (chain 1 GGCCAGAUUUCUGCAAUAAACACUU; chain 2 AAGUGUUUAUUGCAGAAAUCUGGCCAA; chain 1: all phosphodiester, sugars by position and methylation of C not given here; chain 2: unmodified RNA)”, for which the “mRNA expression level of PRDX5” value in data set [6] is “around 0.60”. Also, the “Relative expression level of PRDX5 gene” value in [6] (LNCaP cells) is listed as 0.580; in data set [6] (LNCaP-DTP cells), 0.629.
